Among the data in US9884048B2, “ERK inhibitors” (Merck Sharp & Dohme Corp., priority 2014, dated 2018) are IC50 values, retold here.

As a reminder, the IC50 is the midpoint of a concentration-inhibition curve.

Sequence of phosphorylated active hERK2 enzyme (P28482 whole entry): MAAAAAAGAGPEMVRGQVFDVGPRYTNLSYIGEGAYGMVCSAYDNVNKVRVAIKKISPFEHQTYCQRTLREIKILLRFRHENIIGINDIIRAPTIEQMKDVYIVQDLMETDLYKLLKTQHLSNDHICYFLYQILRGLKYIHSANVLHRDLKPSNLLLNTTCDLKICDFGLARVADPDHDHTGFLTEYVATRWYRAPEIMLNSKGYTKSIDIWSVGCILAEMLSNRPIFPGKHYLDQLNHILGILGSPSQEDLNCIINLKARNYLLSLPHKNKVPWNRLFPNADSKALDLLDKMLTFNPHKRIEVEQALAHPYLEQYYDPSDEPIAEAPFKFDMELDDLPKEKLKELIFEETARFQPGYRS

The first assay concerns the target phosphorylated active hERK2 enzyme (Homo sapiens (Human), UniProt P28482).
Conditions: not given
Regarding `Cc1cc(-n2ncc3cc(NC(=O)N[C@H]4CCC[C@H]4c4ccccc4)ncc32)ccn1` (racemic) [Example 148, Racemic 1-[1-(2-methylpyridin-4-yl)-1H-pyrazolo[3,4-c]pyridin-5-yl]-3-[(1S,2S) and (1R, 2R)-2-phenylcyclopentyl]urea], half-maximal inhibition (IC50) was put at 7.93 nM.
In turn, `CO[C@H]1CCCC[C@@H]1NC(=O)Nc1cc2cnn(-c3ccnc(C)c3)c2cn1` (racemic) [Example 145, Racemic 1-[(1S,2S) and (1R,2R)-2-methoxycyclohexyl]-3-[1-(2-methylpyridin-4-yl)-1H-pyrazolo[3,4-c]pyridin-5-yl)urea] displayed an IC50 of 122 nM.

The assay is the same for the next values; noted with them: read-out: ERK2 IC50; IMAP-FP assay; 0.5 nM hERK2, 30 μM ATP; 10 point titration, 3 μM starting concentration.
As to `Cc1cc(-n2ncc3cc(NC(=O)NC4CC(c5ccccc5)CN(C)C4)ncc32)ccn1` (stereo not shown) [Example 290, 1-(1-methyl-5-phenylpiperidin-3-yl)-3-[1-(2-methylpyridin-4-yl)-1H-pyrazolo[3,4-c]pyridin-5-yl]urea], the IC50 is 17.8 nM.
Regarding `Cc1cc(-n2ncc3cc(NC(=O)N[C@H](CN)c4ccccc4)ncc32)ccn1` [Example 187, 1-[(1S)-2-amino-1-phenylethyl]-3-[1-(2-methylpyridin-4-yl)-1H-pyrazolo[3,4-c]pyridin-5-yl]urea], the IC50 was found to be 0.685 nM.
Regarding `CCN1C[C@@H](NC(=O)Nc2cc3cnn(-c4ccnc(C)c4)c3cn2)[C@H](c2ccccc2)C1` [Example 200, 1-[(3S,4R)-1-ethyl-4-phenylpyrrolidin-3-yl]-3-[1-(2-methylpyridin-4-yl)-1H-pyrazolo[3,4-c]pyridin-5-yl]urea], the IC50 came to 20.6 nM.
Same read-out and setting: then `Cc1cc(-n2ncc3cc(NC(=O)N[C@@H]4[C@@H](c5ccccc5)CN(C)C45COC5)ncc32)ccn1` [Example 184, 1-[(7S,8R)-5-methyl-7-phenyl-2-oxa-5-azaspiro[3.4]oct-8-yl]-3-[1-(2-methylpyridin-4-yl)-1H-pyrazolo[3,4-c]pyridin-5-yl]urea], with 873 nM; and `CO[C@H]1CN(C)C[C@@H]1NC(=O)Nc1cc2cnn(-c3ccnc(C)c3)c2cn1` [Example 193, 1-[(3S,4S)-4-methoxy-1-methylpyrrolidin-3-yl]-3-[1-(2-methylpyridin-4-yl)-1H-pyrazolo[3,4-c]pyridin-5-yl]urea], with 2530 nM.
Still for that read-out and setting: then `CCN1C[C@H](NC(=O)Nc2cc3cnn(-c4ccnc(C)c4)c3cn2)[C@@H](c2ccccc2)C1` [Example 199, 1-[(3R,4S)-1-ethyl-4-phenylpyrrolidin-3-yl]-3-[1-(2-methylpyridin-4-yl)-1H-pyrazolo[3,4-c]pyridin-5-yl]urea], with 0.718 nM; and `Cc1cc(-n2ncc3cc(NC(=O)N[C@@H]4CN(C)C[C@H]4c4cccnc4)ncc32)ccn1` [Example 112, 1-[1-(2-methylpyridin-4-yl)-1H-pyrazolo[3,4-c]pyridin-5-yl]-3-[(3S,4R)-1-methyl-4-pyridin-3-ylpyrrolidin-3-yl)urea], with 48.7 nM; and `Cc1cc(-n2ncc3cc(NC(=O)N[C@H]4COC[C@@H]4c4ccccc4)ncc32)ccn1` [Example 17, 1-[1-(2-methylpyridin-4-yl)-1H-pyrazolo[3,4-c]pyridin-5-yl]-3-[(3R,4R)-4-phenyltetrahydrofuran-3-yl]urea], with 1.83 nM.
The same measure, in the same setting: the result for `C[C@@H](NC(=O)Nc1cc2cnn(C)c2cn1)c1ccccc1` [Example 225, (R)-1-(1-methyl-1H-pyrazolo[3,4-c]pyridin-5-yl)-3-(1-phenylethyl)urea] reads 920 nM; that for `Cc1cc(-n2ncc3cc(NC(=O)NC4CCCN(Cc5nccs5)C4)ncc32)ccn1` (stereo not shown) [Example 267, 1-[1-(2-methylpyridin-4-yl)-1H-pyrazolo[3,4-c]pyridin-5-yl]-3-[1-(1,3-thiazol-2-ylmethyl)piperidin-3-yl]urea], 22.2 nM; that for `Cc1cc(-n2ncc3cc(NC(=O)NC4CC(=O)Nc5ccccc54)ncc32)ccn1` (stereo not shown) [Example 80, 1-[1-(2-methylpyridin-4-yl)-1H-pyrazolo[3,4-c]pyridin-5-yl]-3-(2-oxo-1,2,3,4-tetrahydroquinolin-4-yl)urea], 196 nM.
For `Cc1cc(-n2ncc3cc(NC(=O)NC45CC6CC(CC(O)(C6)C4)C5)ncc32)ccn1` [Example 77, 1-(3-hydroxytricyclo[3.3.1.1~3,7~]dec-1-yl)-3-[1-(2-methylpyridin-4-yl)-1H-pyrazolo[3,4-c]pyridin-5-yl)urea], the IC50 turned out to be 1880 nM.
As for `O=C(Nc1cc2cnn(-c3ccncc3)c2cn1)N[C@@H](c1ccccc1)C(F)(F)F` [Example 38, 1-(1-pyridin-4-yl-1H-pyrazolo[3,4-c]pyridin-5-yl)-3-[(1S)-2,2,2-trifluoro-1-phenylethyl]urea], the concentration for half-maximal inhibition (IC50) is 19.4 nM.
Consider `Cc1cc(-n2ncc3cc(NC(=O)N[C@H]4CN(C)C[C@@H]4CCCc4ccccc4)ncc32)ccn1` [Example 149, 1-[(3R,4S)-1-methyl-4-(3-phenylpropyl)pyrrolidin-3-yl]-3-[1-(2-methylpyridin-4-yl)-1H-pyrazolo[3,4-c]pyridin-5-yl]urea], for which the IC50 was 1.18 nM.
Consider `Cc1cc(-n2ncc3cc(NC(=O)NC4(C#N)CC4)ncc32)ccn1` [Example 121, 1-(1-cyanocyclopropyl)-3-[1-(2-methylpyridin-4-yl)-1H-pyrazolo[3,4-c]pyridin-5-yl]urea], for which the IC50 came out at 1810 nM.
Turning to `CN1C[C@H](NC(=O)Nc2cc3cnn(-c4ccc(F)cc4)c3cn2)[C@@H](c2ccccc2)C1` [Example 208, 1-[1-(4-fluorophenyl)-1H-pyrazolo[3,4-c]pyridin-5-yl]-3-[(3R,4S)-1-methyl-4-phenylpyrrolidin-3-yl]urea], the IC50 turned out to be 0.579 nM.
Same read-out and setting: the result for `COC[C@@H](NC(=O)Nc1cc2cnn(C3CCNC(C)C3)c2cn1)c1ccccc1` (stereo partly drawn) [Example 239, 1-[(1S)-2-methoxy-1-phenylethyl]-3-[1-(2-methylpiperidin-4-yl)-1H-pyrazolo[3,4-c]pyridin-5-yl]urea] reads 2180 nM.
In the case of `O=C(NCc1ccccc1)Nc1cc2cnn(-c3ccc(F)cc3)c2cn1` [Example 37, 1-benzyl-3-[1-(4-fluorophenyl)-1H-pyrazolo[3,4-c]pyridin-5-yl)urea], the IC50 was 19.8 nM.
The same measure, in the same setting: the result for `COC[C@@H](NC(=O)Nc1cc2cnn(Cc3ccncc3)c2cn1)c1ccccc1` [Example 260, 1-[(1S)-2-methoxy-1-phenylethyl]-3-[1-(pyridin-4-ylmethyl)-1H-pyrazolo[3,4-c]pyridin-5-yl]urea] reads 30.9 nM.
On the same count and under the same terms, the result for `CCn1ncc2cc(NC(=O)N[C@H](C)c3ccccc3)nc(OC)c21` [Example 256, 1-(1-ethyl-7-methoxy-1H-pyrazolo[3,4-c]pyridin-5-yl)-3-[(1R)-1-phenylethyl]urea] reads 100 nM.
`Cc1cc(-n2ncc3cc(NC(=O)N[C@H](CO)c4ccccc4)ncc32)ccn1` [Example 65, 1-[(1S)-2-hydroxy-1-phenylethyl]-3-[1-(2-methylpyridin-4-yl)-1H-pyrazolo[3,4-c]pyridin-5-yl]urea]: the IC50 amounted to 1.02 nM.
Consider `Cc1cc(-n2ncc3cc(NC(=O)N[C@@H]4CCN(c5ccc(F)cc5)C4)ncc32)ccn1` [Example 34, 1-[(3R)-1-(4-fluorophenyl)pyrrolidin-3-yl]-3-[1-(2-methylpyridin-4-yl)-1H-pyrazolo[3,4-c]pyridin-5-yl]urea], for which the IC50 came to 762 nM.
Still for that read-out and setting: then `Cc1ccc(-n2ncc3cc(NC(=O)N[C@H](C)c4ccccc4)ncc32)nn1` [Example 213, 1-[1-(6-methylpyridazin-3-yl)-1H-pyrazolo[3,4-c]pyridin-5-yl]-3-[(1R)-1-phenylethyl]urea], with 208 nM.
